Results on eleven compounds are retold here after patent publication US20200190062A1, “HETEROCYCLIC COMPOUND AND PHARMACEUTICAL COMPOSITION COMPRISING SAME” (BEYONDBIO INC., priority 2015, published 2020).

Molecules are shown by their SMILES. Where a name gives a salt, the structure may show the parent alone. Read-outs that look alike come from different tables or passages of the source. Where only a bound is given, the exact number is not on record here.

One data set addresses T1, CDK1/cyclinB (Homo sapiens, UniProt P06493).
T1 construct: purchased Merck Millipore
In words: Inhibition of CDK enzyme activity (ADP-Glo kinase assay). Format: biochemical. The conditions noted are these: 10 uM ATP, histone H1 substrate. How it is done:
(§1) Test compounds were prepared by dissolving the compounds obtained in the above Examples in dimethylsulfoxide (DMSO) at a concentration of 10 mM. The test compounds were diluted to 200 nM, 50 nM, […], 3.13 nM, 0.78 nM, and 0.2 nM and used in an enzyme reaction.
(§2) CDK enzyme reaction was conducted in a buffer containing 50 mM Tris-HCl (pH 7.5), 10 mM MgCl2, 1 mM EGTA, 1 mM EDTA, and 2 mM DTT. CDK1/cyclinB, CDK2/cylcinE, CDK5/p25, and CDK6/cyclinD3 enzymes commercially available from Merck Millipore were used for CDK1, CDK2, CDK5, and CDK6 enzymes, respectively, and CDK4/cyclinD1 enzyme commercially available from Signalchem (US) was used for CDK4. For CDK1, a reaction proceeded by adding 10 nM CDK1/cyclinB and 0.125 mg/ml histone H1 (Merck Millipore) substrate to the buffer and then adding 10 uM ATP thereto. For CDK2, a reaction was proceeded by adding 10 nM CDK2/cyclinE and 0.125 mg/ml histone H1 substrate to the buffer and then adding 10 uM ATP thereto. For CDK5, a reaction was proceeded by adding 10 nM CDK5/p25 and 0.125 mg/ml histone H1 substrate to the buffer and then adding 10 uM ATP thereto. For CDK4, a reaction was proceeded by adding 20 nM CDK4/cyclinD1 and 0.125 mg/ml Rb protein (Merck Millipore) to the buffer and then adding 10 uM ATP thereto. For CDK6, a reaction was proceeded by adding 50 nM CDK6/cyclinD3 and 0.125 mg/ml histone H1 substrate to the buffer and then adding 10 uM ATP thereto. Each enzyme reaction was incubated at 30° C. for 60 min. Then, the amount of ADP produced was measured using Victor X4 instrument (Perkin Elmer) after generating luminescence using ADP-Glo kinase assay kit (Promega, US). An inhibition effect on each enzyme was represented as a percentage of the luminescence value in the presence of the test compounds relative to the luminescence value without the test compounds. IC50 (nM) is the concentration of the compound to inhibit 50% of the enzyme activity.

Another data set deals with T2, CDK2/cyclinE (Homo sapiens, UniProt P24941).
T2 construct: purchased Merck Millipore
The data set is described as above. Format: biochemical. Particulars: 10 uM ATP, histone H1 substrate. How it is done: as §1, §2

The target of the next data set is T3, CDK4/cyclinD1 (Homo sapiens, UniProt P11802).
T3 construct: purchased Signalchem (US)
The description is as above. Format: biochemical. The conditions noted are these: 10 uM ATP, Rb protein substrate; read-out: IC50 CDK4/cyclinD. The protocol:
as §1, §2

Another data set has as its target T4, CDK5/p25 (Homo sapiens, UniProt Q00535).
T4 construct: purchased Merck Millipore
The description is as above. Format: biochemical. The conditions noted are these: 10 uM ATP, histone H1 substrate. The protocol: as §1, §2

A further data set deals with T5, CDK6/cyclinD3 (Homo sapiens, UniProt Q00534).
T5 construct: purchased Merck Millipore
The description is as above. Format: biochemical. Particulars: 10 uM ATP, histone H1 substrate; read-out: IC50 CDK6/cyclinD. The protocol:
as §1, §2

Another data set relates to HCT116. Nature of the data set: Inhibition of cancer cell proliferation (MTT). It is filed as cell-based, human.
The next data set relates to SH-SY5Y. Nature of the data set: Inhibition of cancer cell proliferation (MTT). Format: cell-based, human. The gist of the method:
(§3)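 GI50 values come from MTT readings (535 nm) taken after 72 h of compound treatment over 0.004–10 uM, normalised to vehicle-treated wells. Cell lines are grown in 10% FBS, with DMEM for A549, SK-N-SH and SH-SY5Y and […] for NCI-H23.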

Another data set has as its system SK-N-SH. Nature of the data set: Inhibition of cancer cell proliferation (MTT). It is filed as cell-based, human. The gist of the method: as §3
A further data set has as its system U-87MG. Nature of the data set: Inhibition of cancer cell proliferation (MTT). Format: cell-based, human. The gist of the method: (§4)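 Plate 3000 cells/well and let them adhere for 16 h. Add compound (0.004, 0.013, 0.04, 0.12, 0.37, 1.1, 3.3, 10 uM; 0.08% DMSO) and culture for 72 h. Add MTT for 2 h, dissolve formazan in DMSO, read at 535 nm, and fit GI50.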
The next data set concerns T98G. In words: Inhibition of cancer cell proliferation (MTT). Format: cell-based, human. The conditions noted are these: Homo sapiens, T98G, 72 h. The gist of the method:
as §4

Data set [1] in a line: Blood brain barrier permeation. It is filed as in vivo, ICR mice. The conditions noted are these: mouse, 10 mg/kg, oral once 10 mg/kg. The protocol:
Using 9-week-old male ICR mice, the compounds obtained in the above Examples were orally administered once at a dose of 10 mg/kg or 30 mg/kg, and after 1 hr and 4 hrs, the concentrations of the compounds in the blood and brain of the mice were determined. 3 ICR mice were assigned in each group. Plasma was separated from the blood obtained after sacrificing the mice at each time, the brain of the mice was extracted, and the […] was washed with PBS, followed by pulverizing the brain tissue. The blood was placed in a test tube containing heparin to prevent coagulation and then was centrifuged at 12,000 rpm at 4° C. for 3 min to give a supernatant from which plasma was collected. Brain tissue was weighed, and the brain was pulverized using Dounce's homogenizer after adding 3 times as much volume of PBS as the brain weight. Each of the obtained analytical samples was quantitatively analyzed using a tandem liquid chromatography-mass spectrometer (Tandem LC/MS/MS, API3000 & Agilent 1100 series). Brain permeability of a compound is expressed as a value obtained by dividing the concentration of the compound in the brain by the concentration of the compound in the plasma (B/P ratio), and when the B/P ratio is greater than 1, it means that the concentration in the brain is higher than the one in the blood.

T4 sequence (Q00535 whole entry): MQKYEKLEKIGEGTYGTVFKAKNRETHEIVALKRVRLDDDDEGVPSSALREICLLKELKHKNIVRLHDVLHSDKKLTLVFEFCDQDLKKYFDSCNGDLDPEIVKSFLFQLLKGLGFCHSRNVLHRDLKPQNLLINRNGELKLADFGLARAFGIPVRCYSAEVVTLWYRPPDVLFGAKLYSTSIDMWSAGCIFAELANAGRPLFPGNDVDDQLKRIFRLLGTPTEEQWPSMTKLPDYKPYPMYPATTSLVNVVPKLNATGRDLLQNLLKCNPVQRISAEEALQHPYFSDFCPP
T4 sequence (Q15078 99-307 partner limits assumed): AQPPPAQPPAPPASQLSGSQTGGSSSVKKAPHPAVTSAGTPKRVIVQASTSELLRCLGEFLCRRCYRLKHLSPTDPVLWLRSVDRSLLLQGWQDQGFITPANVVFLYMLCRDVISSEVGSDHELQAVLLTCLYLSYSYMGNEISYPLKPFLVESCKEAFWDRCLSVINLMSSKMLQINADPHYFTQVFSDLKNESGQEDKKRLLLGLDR
T5 sequence (Q00534 whole entry): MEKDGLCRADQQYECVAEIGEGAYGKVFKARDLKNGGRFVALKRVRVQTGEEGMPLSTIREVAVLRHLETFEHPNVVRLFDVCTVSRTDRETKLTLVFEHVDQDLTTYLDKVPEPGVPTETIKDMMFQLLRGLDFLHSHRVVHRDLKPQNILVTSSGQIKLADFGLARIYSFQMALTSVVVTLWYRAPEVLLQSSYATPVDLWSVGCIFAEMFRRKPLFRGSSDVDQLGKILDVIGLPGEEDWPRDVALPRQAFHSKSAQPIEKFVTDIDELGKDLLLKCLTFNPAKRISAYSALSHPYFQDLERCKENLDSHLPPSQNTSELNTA
T5 sequence (P30281 whole entry partner): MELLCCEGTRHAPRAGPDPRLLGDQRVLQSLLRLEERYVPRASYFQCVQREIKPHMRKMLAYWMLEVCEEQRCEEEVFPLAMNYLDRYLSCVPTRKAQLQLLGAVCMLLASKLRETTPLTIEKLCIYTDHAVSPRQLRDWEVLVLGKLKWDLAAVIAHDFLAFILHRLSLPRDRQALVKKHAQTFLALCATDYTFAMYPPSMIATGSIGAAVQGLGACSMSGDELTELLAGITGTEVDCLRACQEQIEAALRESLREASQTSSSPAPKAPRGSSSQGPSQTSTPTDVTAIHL
T3 sequence (P11802 whole entry): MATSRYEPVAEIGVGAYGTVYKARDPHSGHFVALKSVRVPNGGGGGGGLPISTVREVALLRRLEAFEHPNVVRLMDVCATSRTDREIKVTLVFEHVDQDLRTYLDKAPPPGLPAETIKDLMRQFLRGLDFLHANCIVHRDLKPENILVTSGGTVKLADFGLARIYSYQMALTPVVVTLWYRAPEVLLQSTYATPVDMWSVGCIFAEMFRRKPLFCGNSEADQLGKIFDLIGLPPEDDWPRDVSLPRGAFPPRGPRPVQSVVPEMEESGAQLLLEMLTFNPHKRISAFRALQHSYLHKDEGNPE
T3 sequence (P24385 whole entry partner): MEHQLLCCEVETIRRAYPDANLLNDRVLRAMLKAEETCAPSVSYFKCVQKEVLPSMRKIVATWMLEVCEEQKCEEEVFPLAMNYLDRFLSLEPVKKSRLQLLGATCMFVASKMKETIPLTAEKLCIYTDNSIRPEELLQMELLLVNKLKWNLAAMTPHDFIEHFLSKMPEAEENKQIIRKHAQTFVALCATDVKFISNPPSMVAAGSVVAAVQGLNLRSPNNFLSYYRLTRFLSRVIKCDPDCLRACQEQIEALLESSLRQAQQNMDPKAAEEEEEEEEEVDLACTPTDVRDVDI
T1 sequence (P06493 whole entry): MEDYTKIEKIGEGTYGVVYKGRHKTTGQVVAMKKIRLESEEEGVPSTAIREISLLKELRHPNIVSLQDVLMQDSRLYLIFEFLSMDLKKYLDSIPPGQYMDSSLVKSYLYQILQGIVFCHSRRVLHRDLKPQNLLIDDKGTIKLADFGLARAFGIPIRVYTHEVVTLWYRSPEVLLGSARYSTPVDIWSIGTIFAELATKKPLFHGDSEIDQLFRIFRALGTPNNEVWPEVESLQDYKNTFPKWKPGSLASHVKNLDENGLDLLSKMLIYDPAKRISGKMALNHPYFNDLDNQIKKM
T1 sequence (P14635 whole entry partner): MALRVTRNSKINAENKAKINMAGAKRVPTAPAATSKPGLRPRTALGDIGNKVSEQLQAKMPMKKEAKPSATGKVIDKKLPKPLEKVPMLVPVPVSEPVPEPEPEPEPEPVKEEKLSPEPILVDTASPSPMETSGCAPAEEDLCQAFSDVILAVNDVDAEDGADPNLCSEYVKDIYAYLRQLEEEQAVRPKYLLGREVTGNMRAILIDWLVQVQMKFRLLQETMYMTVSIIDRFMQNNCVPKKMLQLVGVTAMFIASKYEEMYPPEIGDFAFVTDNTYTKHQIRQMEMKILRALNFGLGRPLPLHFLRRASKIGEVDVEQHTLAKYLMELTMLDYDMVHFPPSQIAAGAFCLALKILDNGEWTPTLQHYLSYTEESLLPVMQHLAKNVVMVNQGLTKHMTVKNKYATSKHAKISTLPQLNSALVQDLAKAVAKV

In the case of `Nc1nccc(-c2nc(-c3ccc(O)cc3)ccc2O)n1` [Example 9, 2-(2-aminopyrimidin-4-yl)-6-(4-hydroxyphenyl)pyridin-3-ol], the IC50 came out at 11.6 nM against CDK1/cyclinB; 6.4 nM against CDK2/cyclinE; 287 nM at CDK4/cyclinD1; 2.3 nM at CDK5/p25; 44.8 nM on CDK6/cyclinD3. Further, the GI50 in the data set with HCT116 (Homo sapiens, HCT-116, 72 h) came out at 200 nM; in the data set on SH-SY5Y (Homo sapiens, SH-SY5Y, 72 h), 90 nM; with SK-N-SH (Homo sapiens, SK-N-SH, 72 h) it was 200 nM; in the data set on U-87MG (Homo sapiens, U-87 MG, 72 h), 630 nM.
As for `Nc1cccc(-c2ccc(O)c(-c3ccnc(N)n3)n2)c1` [Example 16, 6-(3-aminophenyl)-2-(2-aminopyrimidin-4-yl)pyridin-3-ol], the GI50 worked out at 1330 nM in the data set on HCT116 (Homo sapiens, HCT-116, 72 h); 570 nM with SH-SY5Y (Homo sapiens, SH-SY5Y, 72 h); 2910 nM with SK-N-SH (Homo sapiens, SK-N-SH, 72 h); 3600 nM in the data set with U-87MG (Homo sapiens, U-87 MG, 72 h).
Consider `Nc1nccc(-c2nc(-c3ccc(O)cc3F)ccc2O)n1` [Example 17, 2-(2-aminopyrimidin-4-yl)-6-(2-fluoro-4-hydroxyphenyl)pyridin-3-ol], for which the IC50 was 30.8 nM against CDK1/cyclinB; 9.4 nM on CDK2/cyclinE; greater than 200 nM on CDK4/cyclinD1; 3.3 nM against CDK5/p25; 65.3 nM at CDK6/cyclinD3. In addition, the GI50 in the data set with HCT116 (Homo sapiens, HCT-116, 72 h) stood at 610 nM; in the data set on SH-SY5Y (Homo sapiens, SH-SY5Y, 72 h), 290 nM; in the data set on SK-N-SH (Homo sapiens, SK-N-SH, 72 h), 840 nM; with U-87MG (Homo sapiens, U-87 MG, 72 h) it was 1700 nM.
For `Nc1nccc(-c2nc(-c3cccc(N)c3F)ccc2O)n1` [Example 18, 6-(3-amino-2-fluorophenyl)-2-(2-aminopyrimidin-4-yl)pyridin-3-ol], the IC50 against CDK1/cyclinB is 26.8 nM; against CDK2/cyclinE, 10.7 nM; on CDK4/cyclinD1, greater than 200 nM; on CDK5/p25, 6.1 nM; on CDK6/cyclinD3, 181 nM. The GI50 came out at 340 nM in the data set with HCT116 (Homo sapiens, HCT-116, 72 h); 200 nM in the data set with SH-SY5Y (Homo sapiens, SH-SY5Y, 72 h); 780 nM in the data set with SK-N-SH (Homo sapiens, SK-N-SH, 72 h); 5860 nM in the data set with U-87MG (Homo sapiens, U-87 MG, 72 h).
For the compound `Nc1nccc(-c2nc(-c3ccc(O)c(F)c3)ccc2O)n1` [Example 19, 2-(2-aminopyrimidin-4-yl)-6-(3-fluoro-4-hydroxyphenyl)pyridin-3-ol], the IC50 was 19.6 nM against CDK1/cyclinB; 14.6 nM against CDK2/cyclinE; greater than 200 nM at CDK4/cyclinD1; 6.4 nM against CDK5/p25; 129 nM on CDK6/cyclinD3. Also, the GI50 in the data set on HCT116 (Homo sapiens, HCT-116, 72 h) stood at 460 nM; in the data set with SH-SY5Y (Homo sapiens, SH-SY5Y, 72 h) it was 120 nM; with SK-N-SH (Homo sapiens, SK-N-SH, 72 h), 210 nM; with T98G it was 2610 nM; with U-87MG (Homo sapiens, U-87 MG, 72 h), 440 nM.
Regarding `Nc1nccc(-c2nc(-c3ccc(O)c(F)c3F)ccc2O)n1` [Example 20, 2-(2-aminopyrimidin-4-yl)-6-(2,3-difluoro-4-hydroxyphenyl)pyridin-3-ol], the concentration for 50% growth inhibition (GI50) with HCT116 (Homo sapiens, HCT-116, 72 h) amounted to 520 nM; in the data set on SH-SY5Y (Homo sapiens, SH-SY5Y, 72 h) it was 190 nM; in the data set on SK-N-SH (Homo sapiens, SK-N-SH, 72 h), 390 nM; in the data set with T98G, 4310 nM; in the data set with U-87MG (Homo sapiens, U-87 MG, 72 h), 1180 nM.
`Nc1nccc(-c2nc(-c3ccnc(N)c3O)ccc2O)n1` [Example 21, 2′-amino-6-(2-aminopyrimidin-4-yl)-[2,4′-bipyridin]-3′,5-diol]: the IC50 against CDK1/cyclinB was 6.1 nM; on CDK2/cyclinE, 4.5 nM; on CDK4/cyclinD1, 403 nM; against CDK5/p25, 1.5 nM; at CDK6/cyclinD3 it was 73.6 nM. For the same compound, the GI50 with HCT116 (Homo sapiens, HCT-116, 72 h) amounted to 140 nM; with SH-SY5Y (Homo sapiens, SH-SY5Y, 72 h), 110 nM; in the data set with SK-N-SH (Homo sapiens, SK-N-SH, 72 h), 310 nM; in the data set on U-87MG (Homo sapiens, U-87 MG, 72 h), 890 nM.
For the compound `Nc1nccc(-c2nc(-c3ccnc(N)c3F)ccc2O)n1` [Example 67, 2′-amino-6-(2-aminopyrimidin-4-yl)-3′-fluoro-[2,4′-bipyridin]-5-ol acetate], the GI50 was 10 nM in the data set with HCT116 (72 hrs), 10 nM with SH-SY5Y (72 hrs), 20 nM in the data set on SK-N-SH (72 hrs) and 90 nM in the data set with U-87MG (72 hrs). The concentration at 1 h in data set [1] (male, ICR, brain, po, 1 hr, read-out: Concentration in the brain) turned out to be 55.1 ng/g; in data set [1] (male, ICR, plasma, po, 1 hr, read-out: Concentration in the plasma), 24.9 ng/mL. In addition, the Kp at 1 h in data set [1] (male, ICR, brain/plasma, po, 1 hr, read-out: B/P ratio) turned out to be 2.21. The Kp at 4 h in [1] (male, ICR, brain/plasma, po, 4 hrs, read-out: B/P ratio) turned out to be 3.97. Besides, the “Concentration in the brain” value in [1] (4 hrs) was 15.5 ng/g. Moreover, in [1] (4 hrs), the “Concentration in the plasma” value is 3.9 ng/mL.
For `Nc1nccc(-c2nc(-c3ccnc(N)c3F)ccc2O)n1` [Example 68, 2′-amino-6-(2-aminopyrimidin-4-yl)-3′-fluoro-[2,4′-bipyridin]-5-oloxalate], the GI50 stood at 10 nM in the data set with HCT116 (72 hrs), 10 nM with SH-SY5Y (72 hrs), 30 nM with SK-N-SH (72 hrs) and 100 nM with U-87MG (72 hrs).
As to `Nc1nccc(-c2nc(-c3ccnc(N)c3F)ccc2O)n1` [Example 69, 2′-amino-6-(2-aminopyrimidin-4-yl)-3′-fluoro-[2,4′-bipyridin]-5-ol 2malonate], the GI50 in the data set with HCT116 (72 hrs) was 80 nM; in the data set with SH-SY5Y (72 hrs), 4 nM; with SK-N-SH (72 hrs) it was 20 nM; in the data set with U-87MG (72 hrs), 90 nM.
In the same order, the values of `Nc1nccc(-c2nc(-c3ccc(O)cc3F)ccc2O)n1` [Example 70, 2-(2-aminopyrimidin-4-yl)-6-(2-fluoro-4-hydroxyphenyl)pyridin-3-ol 2hydrochloride] are 530 nM, 160 nM, 580 nM and 1650 nM.
